In US10329532B2, “Method to direct differentiation of pluripotent stem cells into functional heart muscle” (GEORG-AUGUST-UNIVERSITÄT GÖTTINGEN STIFTUNG ÖFFENTLICHEN …, priority 2013, dated 2019):
“Also recorded” adds a separate entry of the source. Like-named read-outs stand apart in the source and are kept apart here.

Key:
Format in all cases: cell-based, human
HES2 hPSCs = experiment: 2D cardiac differentiation of hPSC (MESP1 qPCR day 3, α-actinin flow cytometry day 16, beating activity)
Description: For this reason a cardiac differentiation protocol was firstly required which consistently produced cardiomyocytes and fibroblasts/stromal cells. The inventors optimized their cardiac differentiation protocol (FIG. 1a) for both yield and consistency, based on a previously published serum-free 2D hPSC differentiation protocol (Hudson et al. Stem Cells Dev 21, 1513-1523 (2012)). It was reasoned that robustness and efficiency could be enhanced if WNT activity was stabilized during the mesoderm induction phase. As surrogate marker for mesoderm induction MESP1 expression was analysed by qPCR on culture day 3; this was followed by flow cytometry for α-actinin (cardiomyocyte marker) at day 16, which were found correlated very well with the amount of beating activity.
Cardiac differentiation was optimized on the HES2 line. HES2 hPSCs were plated at 5×10^4 cells/cm^2 (1×10^5 cells/cm^2 for HES3 and hIPS lines) on 1:30 Matrigel/PBS coated-plates and cultured in 1:1 PSC-medium minus FGF-2 and HFF-conditioned medium (HFF-CM—harvested from 5 day confluent irradiated HFF cultures) with 10 ng/mL FGF2. For the hIPS line 10 μM Y-27632 was added to this medium. After 1 day the cells were rinsed with RPMI medium, then differentiated as indicated in each figure with 0.5 ml of medium in each well of a 24 well plate. The protocol details for each figure are outlined in FIG. 8.
(§1) Cells, BHMs or human heart biopsies were harvested and stored at −80° C. until RNA extraction using Trizol following manufacturer's instructions (Applied Biosystems). 1 μg of RNA was then treated with DNAse (Roche) followed by cDNA synthesis using a High Capacity cDNA Reverse Transcription Kit (Applied Biosystems). qPCR was performed using Fast SYBR Green Master Mix (Applied Biosystems) on a 384-well format AB7900 HT (Applied Biosystems). Gene expression was normalized using 2^−ΔCt or 2^−ΔΔCt using GAPDH as the housekeeping gene which we found to be consistently expressed between conditions in all of our experiments. Primer details are given in below Table 1.
(§2) Cells were stained either live or fixed using Histofix for 10 min at room temperature or ethanol. The cells were stained in 5% FBS in PBS (membrane blocking buffer) for cell surface markers (excluding TRA-1-60) and blocking buffer for internal markers. The cells were then stained with primary antibodies in blocking buffer for 45 min followed by secondary antibodies in blocking buffer and Hoechst for 30 min at 4° C. (Table 2). A BD LSRII was used for flow cytometry analysis (BD Biosystems). Live cells populations were gated based on forward-side scatter profiles; fixed cells populations were gated based on Hoechst staining. BD FACSDiva Software (BD Bioscience) or Cyflologic v1.2.1 (Cyflo Ltd) were used for analysis.

[1] = test system: bioengineered heart muscle (BHM); experiment: qPCR gene expression in BHM; settings: for pathological hypertrophy marker ANP expression / β-MHC/α-MHC expression ratio: growth factor added during cardiac maturation (FGF2: 10 ng/mL, TGFb1: 1 ng/mL)
Protocol: (§3) BHM formation was optimized on the HES2 line. HES2 hPSCs were suspended 1:1 in PSC-medium minus FGF-2 and HFF-conditioned medium (HFF-CM—harvested from 5 day confluent irradiated HFF cultures) with 10 ng/mL FGF2 and mixed with a collagen I hydrogel. For the HES3, and hIPS lines 10 μM Y-27632 was also added to the medium. The collagen I matrix was formulated with acid-soluabilized bovine collagen I (Devro) with an equi-volume of 2×DMEM (Gibco) and neutralized using 0.1 M sodium hydroxide. The hPSC/collagen I matrix was formulated to give a final collagen I concentration of 1 mg/ml and 5×10^5 hPSC per 170 μl. For the HES3 and hIPS lines 1×10^6 and 0.5×10^6 cells were used respectively per 170 μl. For each BHM, 170 μl of the hPSC/collagen I matrix was pipette into circular molds (i.d.=4 mm, o.d.=10 mm) fabricated using poly(dimethylsiloxane) (Sylgard, Dow Corning). After 10 min of culture in the incubator at 37° C. the collagen gelled and 1.25 ml of 1:1 human foreskin fibroblast-conditioned medium with 10 ng/ml FGF2 was added per BHM. The following day the BHMs were rinsed with RPMI medium and then differentiated as indicated in each figure, with 1.25 ml of medium per BHM. At day 13 the BHM were transferred onto mechanical stimulators as indicated. The protocol details for each figure are outlined in FIG. 8.
as §1

[2] = test system: bioengineered heart muscle (BHM); experiment: Isometric contraction measurements of BHM (twitch tension/force of contraction) in organ baths; settings: for twitch tension/force of contraction: growth factor added during cardiac maturation (FGF2: 10 ng/mL, TGFb1: 1 ng/mL)
Protocol: Briefly, contraction experiments are performed in organ baths at 37° C. under constant bubbling with 5% CO2 and 95% O2 to maintain a physiological pH in Tyrode's solution containing (all in mM): 120 NaCl, 1 MgCl2, 0.2 CaCl2, 5.4 KCl, 22.6 NaHCO3, 4.2 NaH2PO4, 5.6 glucose and 0.56 ascorbate. Calcium is adjusted using a 0.2 M calcium chloride solution. All BHM are analysed at 3 Hz with 5 ms square pulses of 200 mA electrical current in order to pace at approximately the embryonic heart rate. Stimulation frequency is altered to confirm proper force-frequency response (Bowditch mechanism). BHM are mechanically stretched at intervals of 125 μm until the maximum twitch force is observed (force-length response; Frank-Starling mechanism).
Briefly, all contraction experiments are performed in organ baths at 37° C. and physiological pH in Tyrode's solution containing (all in mM): 120 NaCl, 1 MgCl2, 0.2 CaCl2, 5.4 KCl, 22.6 NaHCO3, 4.2 NaH2PO4, 5.6 glucose and 0.56 ascorbate. Calcium is adjusted using a 0.2 M calcium chloride solution. All BHM are analysed at 3 Hz with 5 ms square pulses of 200 mA electrical current in order to pace at approximately the embryonic heart rate. Stimulation frequency is altered to confirm proper force-frequency response (Bowditch mechanism). BHM are mechanically stretched at intervals of 125 μm until the maximum twitch force is observed at 2 mM calcium (Frank-Starling mechanism). Subsequently, BHM are subjected to different calcium concentrations (0.2, 0.4, 0.8, 1.2, 1.6, 2.0, 2.4 mM) and the twitch force is recorded. For isoprenaline experiments the calcium concentration is adjusted to 0.6 mM and subsequently the isoprenaline concentration is adjusted to 1 μM.
as §3
Contraction experiments were performed in organ baths at 37° C. and continuous bubbling with 5% CO2/95% O2 to maintain a physiological pH in Tyrode's solution containing (all in mM): 120 NaCl, 1 MgCl2, 0.2 CaCl2, 5.4 KCl, 22.6 NaHCO3, 4.2 NaH2PO4, 5.6 glucose and 0.56 ascorbate. Calcium was adjusted using a 0.2 M calcium chloride solution. All BHM were first analysed at 3 Hz with 5 ms square pulses of 200 mA in order to pace at approximately the embryonic heart rate. BHM were mechanically stretched at intervals of 125 μm until Lmax, i.e. the tissue length were maximum twitch tension/force of contraction was recorded in the presence of maximally inotropically active calcium concentrations (2 mmol/L; Frank-Starling mechanism). Subsequently, BHM were subjected to different calcium concentrations (0.2, 0.4, 0.8, 1.2, 1.6, 2.0, 2.4 mM) and the twitch force recorded. […]

[3] = test system: bioengineered heart muscle (BHM); experiment: Flow cytometry of disassociated BHM (cell composition, cardiomyocyte size, cell cycle, cell number); settings: for cardiomyocyte size: growth factor added during cardiac maturation (FGF2: 10 ng/mL, TGFb1: 1 ng/mL)
Protocol: as §3
For the initial BHM digestion protocol, BHMs were disassociated in 0.025 mg/ml Liberase TM (Roche), 30 mM 2,3-butanedione monoxime at 37° C. for 60 min in PBS. To preserve cell surface markers, BHM was disassociated using the same protocol as for the 2D digestion.
as §2

[4] = calcium adjusted to 1.2 mM during cardiac maturation
[5] = ASC-2-P during the entire differentiation protocol, data not shown

## Cc1c[nH]c(-c2cnc(NCCNc3ccc(C#N)cn3)nc2-c2ccc(Cl)cc2Cl)n1 [CHIR, CHIR99021, reference compound]
HES2 hPSCs; CHIR alone or with the differentiation factors used in FIG. 1b,c
  beating activity: unable to induce any beating activity

## [Ca+2] [calcium]
[1]; calcium adjusted to 1.2 mM, data not shown
  calcium handling proteins by qPCR (CASQ2, PLN, ATP2A2, RYR2): no changes in calcium handling proteins
[2]; 29-30 day old BHM (increased culture time), read-out: calcium EC50 (twitch tension)
  EC50: 700 µM
[2]; 22 day old BHM (previous data), read-out: calcium EC50 (twitch tension)
  EC50: 200 µM
[2]; [4]
  elastic modulus: increase
  resting tension: increase in resting tension
[2]; calcium adjusted to 1.2 mM during cardiac maturation (RPMI 0.42 mM)
  twitch tension of the BHM: greatly increased the twitch tension
[2]; characteristic of the BHM obtained by the method, read-out: calcium EC50
  EC50: > 200 µM

## c1cc(-c2cnn3cc(-c4ccc(OCCN5CCCCC5)cc4)cnc23)ccn1 [dorsomorphin, reference compound]
[2]; 2 μmol/L dorsomorphin with each medium exchange from day 6 onwards
  twitch tension/force of contraction, % of the control group: 47%

## CC(C)NCC(O)c1ccc(O)c(O)c1 (stereo not shown) [isoprenaline, reference compound]
[2]; 1 μM isoprenaline, 29-30 day vs 22 day old BHM, paced at 0.6 mM calcium
  inotropic response with extended culture: increased inotropic response
[2]; 1 μM isoprenaline, paced conditions at 0.6 mM calcium
  inotropic response: more than 40 μN

## FGF2: growth factor FGF2 (Miltenyi Biotec)
[1]
  pathological hypertrophy marker ANP expression: induced (variably) pathological hypertrophy marker ANP
  β-MHC/α-MHC expression ratio: did not change β-MHC/α-MHC expression ratio
[2]
  twitch tension/force of contraction: trend to decreased twitch tension
HES2 hPSCs; 5 ng/ml FGF2 during the first 3 days of differentiation, flow cytometry day 16
  α-actinin: trend to increased α-actinin
HES2 hPSCs; 5 ng/ml FGF2 during the first 3 days of differentiation, qPCR day 3
  MESP1 expression: trend to increased MESP1 expression
[3]
  cardiomyocyte size: increase in cardiomyocyte size

## L-ascorbic acid 2 phosphate sesquimagnesium salt hydrate [ASC-2-P, reference compound]
[2]; ASC-2-P supplemented during early BHM culture, days 0-13
  BHM twitch tension/force of contraction: significantly improved
HES2 hPSCs; [5]
  cardiac differentiation efficiency in 2D protocol: without changes in cardiac differentiation efficiency
  number of cells in 2D protocol: significantly increasing the number of cells
[3]; ASC-2-P supplemented days 0-13
  cardiomyocyte fraction: trend to increased cardiomyocyte fraction
  stromal cell fraction: no change in the stromal cell fraction

## TGFβ1: growth factor TGFβ1 (Peprotech)
[1]
  pathological hypertrophy marker ANP expression: decreased
  β-MHC/α-MHC expression ratio: more mature β-MHC/α-MHC expression ratio
[2]
  twitch tension/force of contraction: trend to increased twitch tension
[2]; increasing TGFβ-1 during cardiac maturation phase, 0.3-10 ng/ml tested
  contractile function of BHM (FOC: force of contraction): enhances contractile function of BHM; also recorded: enhancement of contractile function of BHM in a concentration dependent manner
[3]
  cardiomyocyte size: increase in cardiomyocyte size

B1: BMP4: growth factor BMP4 (R&D Systems) (protein, UniProt P12644 293-408, looked up)
Bone morphogenetic protein 4: SPKHHSQRARKKNKNCRRHSLYVDFSDVGWNDWIVAPPGYQAFYCHGDCPFPLADHLNSTNHAIVQTLVNSVNSSIPKACCVPTELSAISMLYLDEYDKVVLKNYQEMVVEGCGCR
HES2 hPSCs; BMP4 concentration varied whilst CHIR is present
  BMP4 concentration giving optimal and consistent induction of MESP1 and α-actinin expression: 5 ng/mL
